One assay addresses PI3 K P110α (Homo sapiens, UniProt P42336). The experiment in a line: Inhibition of PI3K (P110α). The assay is classed as biochemical. The conditions noted are these: values printed without % sign, read as IC50, read-out: PI3 K (% at 25 μM, or IC50), P110α.
The next assay concerns the target mTOR (Homo sapiens, UniProt P42345). The experiment in a line: Inhibition of mTOR. The settings on record: for inhibition at 50 µM: read-out: mTOR (Inhibition % at 50 μM, or IC50). The assay is classed as biochemical.

PI3 K P110α, sequence (P42336 whole entry): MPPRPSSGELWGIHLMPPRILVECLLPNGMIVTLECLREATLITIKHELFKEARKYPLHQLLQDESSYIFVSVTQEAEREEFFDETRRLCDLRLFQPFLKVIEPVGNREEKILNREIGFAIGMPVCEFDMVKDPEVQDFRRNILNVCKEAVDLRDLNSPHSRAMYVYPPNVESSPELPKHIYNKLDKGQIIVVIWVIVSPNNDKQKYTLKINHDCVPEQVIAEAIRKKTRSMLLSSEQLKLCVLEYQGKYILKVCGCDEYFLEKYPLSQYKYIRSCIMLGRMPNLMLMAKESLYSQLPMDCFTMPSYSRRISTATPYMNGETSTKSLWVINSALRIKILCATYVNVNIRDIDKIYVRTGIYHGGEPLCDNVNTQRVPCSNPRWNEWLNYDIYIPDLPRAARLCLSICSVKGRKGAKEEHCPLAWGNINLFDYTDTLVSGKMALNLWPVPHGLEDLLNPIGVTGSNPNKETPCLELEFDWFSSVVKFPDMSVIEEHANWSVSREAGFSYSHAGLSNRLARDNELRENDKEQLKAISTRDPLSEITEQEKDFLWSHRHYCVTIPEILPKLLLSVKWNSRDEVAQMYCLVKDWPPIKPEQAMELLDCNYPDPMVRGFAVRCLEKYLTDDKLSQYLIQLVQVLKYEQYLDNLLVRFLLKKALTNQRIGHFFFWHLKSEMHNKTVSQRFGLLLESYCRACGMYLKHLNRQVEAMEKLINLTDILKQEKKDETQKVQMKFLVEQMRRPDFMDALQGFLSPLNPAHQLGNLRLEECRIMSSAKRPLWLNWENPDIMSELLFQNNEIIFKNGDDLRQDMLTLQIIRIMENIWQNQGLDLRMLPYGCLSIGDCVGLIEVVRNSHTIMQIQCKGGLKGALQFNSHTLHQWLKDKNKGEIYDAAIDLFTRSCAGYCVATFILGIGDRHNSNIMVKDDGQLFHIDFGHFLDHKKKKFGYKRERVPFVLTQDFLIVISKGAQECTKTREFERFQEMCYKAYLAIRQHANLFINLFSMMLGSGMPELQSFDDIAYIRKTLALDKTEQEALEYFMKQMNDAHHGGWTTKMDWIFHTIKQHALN
PI3 K P110α, sequence (P27986 whole entry partner): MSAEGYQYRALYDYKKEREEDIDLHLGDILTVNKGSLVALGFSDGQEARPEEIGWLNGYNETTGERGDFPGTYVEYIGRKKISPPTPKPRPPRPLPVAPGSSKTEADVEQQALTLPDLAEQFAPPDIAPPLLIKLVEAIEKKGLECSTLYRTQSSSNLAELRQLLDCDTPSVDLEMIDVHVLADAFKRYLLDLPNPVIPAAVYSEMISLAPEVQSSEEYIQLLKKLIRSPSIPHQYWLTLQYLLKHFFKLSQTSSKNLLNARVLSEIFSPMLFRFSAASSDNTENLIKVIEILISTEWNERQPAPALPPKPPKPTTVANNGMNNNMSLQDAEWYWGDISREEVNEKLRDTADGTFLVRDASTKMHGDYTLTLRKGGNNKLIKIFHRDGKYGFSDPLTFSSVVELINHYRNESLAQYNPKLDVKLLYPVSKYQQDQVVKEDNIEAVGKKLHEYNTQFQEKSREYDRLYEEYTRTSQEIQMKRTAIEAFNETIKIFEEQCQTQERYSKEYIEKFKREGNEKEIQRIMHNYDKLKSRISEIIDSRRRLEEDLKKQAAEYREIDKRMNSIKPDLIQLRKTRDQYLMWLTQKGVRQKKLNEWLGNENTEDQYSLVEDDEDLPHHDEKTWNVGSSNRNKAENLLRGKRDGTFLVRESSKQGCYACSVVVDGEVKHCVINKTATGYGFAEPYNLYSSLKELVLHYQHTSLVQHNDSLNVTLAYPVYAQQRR

For the compound `Nc1ccc(C#Cc2n[nH]c3ccccc23)cc1`, the IC50 at PI3 K P110α is 83 nM. The inhibition at 50 µM on mTOR was 9%.

With `C(#Cc1n[nH]c2ccccc12)c1ccccc1`, on mTOR, the inhibition at 50 µM was found to be 6%.

In the case of `Fc1cc(F)cc(C#Cc2n[nH]c3ccccc23)c1`, the inhibition at 50 µM at mTOR came to 6%.

Regarding `C(#Cc1n[nH]c2ccccc12)c1cccnc1`, the inhibition at 50 µM at mTOR is 34%.

`C(#Cc1n[nH]c2ccccc12)c1ccncc1`: the inhibition at 50 µM on mTOR came to 30%.

In the case of `Cn1cncc1C#Cc1n[nH]c2ccccc12`, at PI3 K P110α, the IC50 was found to be 62 nM. For the same compound, at mTOR, the IC50 is above 100 µM and the inhibition at 50 µM amounted to 46%.

`O=[N+]([O-])c1ccc2c(C#Cc3ccccc3)n[nH]c2c1`: the inhibition at 50 µM on mTOR was -1%.

With `COc1ccc2cc(C#Cc3n[nH]c4ccccc34)ccc2c1`, the inhibition at 50 µM on mTOR was determined as 5%.

Turning to `FC(F)(F)c1cc(C#Cc2n[nH]c3ccccc23)cc(C(F)(F)F)c1`, the inhibition at 50 µM on mTOR was -3%.

As to `C(#Cc1n[nH]c2ccccc12)c1ccsc1`, the inhibition at 50 µM on mTOR is 7%.

In the case of `C(#Cc1n[nH]c2ccccc12)c1ccccn1`, the inhibition at 50 µM on mTOR is 13%.

Regarding `COC(=O)c1ccc2c(C#Cc3cncn3C)n[nH]c2c1`, the inhibition at 50 µM on mTOR is 4%.

With `Cn1cncc1C#Cc1n[nH]c2cc(C(=O)O)ccc12`, the inhibition at 50 µM on mTOR is 24%.

In the case of `N#Cc1ccc(C#Cc2n[nH]c3ccccc23)cc1`, at mTOR, the inhibition at 50 µM worked out at 1%.

For the compound `Nc1cccc(C#Cc2n[nH]c3ccccc23)c1`, the inhibition at 50 µM at mTOR is 9%.

As for `C(#CC1CCCC1)c1n[nH]c2ccccc12`, the inhibition at 50 µM on mTOR was 3%.

On to `C(#CC1CC1)c1n[nH]c2ccccc12`, for which the inhibition at 50 µM at mTOR is 2%.

On to `COc1ccc(C#Cc2n[nH]c3ccccc23)cc1`, for which the inhibition at 50 µM at mTOR is 5%.

Consider `COc1ccc(C(NC(=O)c2ccc3c(C#Cc4cncn4C)n[nH]c3c2)c2ccncc2)cc1` (stereo not shown), for which the IC50 at PI3 K P110α is 82 nM.

In the case of `Cn1cncc1C#Cc1n[nH]c2cc(C(=O)NCc3cc4ccccc4[nH]3)ccc12`, at mTOR, the inhibition at 50 µM stood at 3%.

For the compound `Cc1ccc2[nH]c(C(C)NC(=O)c3ccc4c(C#Cc5cncn5C)n[nH]c4c3)nc2c1` (stereo not shown), at mTOR, the inhibition at 50 µM was -7%.

For `Cn1cncc1C#Cc1n[nH]c2cc(C(=O)NC(c3ccncc3)c3ccc(Cl)cc3)ccc12` (stereo not shown), the inhibition at 50 µM on mTOR was -27%.

In the case of `Cn1cncc1C#Cc1n[nH]c2cc(C(=O)NCc3cccs3)ccc12`, the inhibition at 50 µM at mTOR was -14%.

Regarding `Cn1cncc1C#Cc1n[nH]c2cc(C(=O)NCc3ccco3)ccc12`, the inhibition at 50 µM on mTOR is -5%.

Turning to `Cn1cncc1C#Cc1n[nH]c2cc(C(=O)NC34CC5CC(CC(C5)C3)C4)ccc12`, the inhibition at 50 µM on mTOR is -11%.

Consider `Cn1cncc1C#Cc1n[nH]c2cc(C(=O)NCc3ccccn3)ccc12`, for which the inhibition at 50 µM on mTOR was -17%.

For `O=C(O)c1ccc(C#Cc2n[nH]c3ccccc23)cc1`, the midpoint of inhibition on mTOR, the IC50, lay at 31 µM.

For the compound `CC(C)(C)OC(=O)NCCCCCNC(=O)c1ccc(C#Cc2n[nH]c3ccccc23)cc1`, the inhibition at 50 µM on mTOR is -6%.

Regarding `NCCCCCNC(=O)c1ccc(C#Cc2n[nH]c3ccccc23)cc1`, the inhibition at 50 µM on mTOR was 3%.

Consider `C(#Cc1n[nH]c2ncccc12)c1ccncc1`, for which the inhibition at 50 µM on mTOR worked out at 15%.

For the compound `C(#Cc1n[nH]c2ncccc12)c1ccccn1`, on mTOR, the inhibition at 50 µM was determined as 7%.

The values are drawn from US7951832B2, “Pyrazole derivatives as kinase inhibitors” (Burnham Institute for Medical Research, priority 2007, dated 2011).
